Data published in ChEMBL document CHEMBL5291721, “A preclinical secondary pharmacology resource illuminates target-adverse drug reaction associations of marketed drugs” (Nat Commun, 2023).

Columns and labels:
[1] = biological target: 5-hydroxytryptamine receptor 2A (Homo sapiens, UniProt P28223)
Androgen receptor = biological target: T1, Androgen receptor (Rattus norvegicus, UniProt P15207); type: functional
T1 sequence (P15207 whole entry): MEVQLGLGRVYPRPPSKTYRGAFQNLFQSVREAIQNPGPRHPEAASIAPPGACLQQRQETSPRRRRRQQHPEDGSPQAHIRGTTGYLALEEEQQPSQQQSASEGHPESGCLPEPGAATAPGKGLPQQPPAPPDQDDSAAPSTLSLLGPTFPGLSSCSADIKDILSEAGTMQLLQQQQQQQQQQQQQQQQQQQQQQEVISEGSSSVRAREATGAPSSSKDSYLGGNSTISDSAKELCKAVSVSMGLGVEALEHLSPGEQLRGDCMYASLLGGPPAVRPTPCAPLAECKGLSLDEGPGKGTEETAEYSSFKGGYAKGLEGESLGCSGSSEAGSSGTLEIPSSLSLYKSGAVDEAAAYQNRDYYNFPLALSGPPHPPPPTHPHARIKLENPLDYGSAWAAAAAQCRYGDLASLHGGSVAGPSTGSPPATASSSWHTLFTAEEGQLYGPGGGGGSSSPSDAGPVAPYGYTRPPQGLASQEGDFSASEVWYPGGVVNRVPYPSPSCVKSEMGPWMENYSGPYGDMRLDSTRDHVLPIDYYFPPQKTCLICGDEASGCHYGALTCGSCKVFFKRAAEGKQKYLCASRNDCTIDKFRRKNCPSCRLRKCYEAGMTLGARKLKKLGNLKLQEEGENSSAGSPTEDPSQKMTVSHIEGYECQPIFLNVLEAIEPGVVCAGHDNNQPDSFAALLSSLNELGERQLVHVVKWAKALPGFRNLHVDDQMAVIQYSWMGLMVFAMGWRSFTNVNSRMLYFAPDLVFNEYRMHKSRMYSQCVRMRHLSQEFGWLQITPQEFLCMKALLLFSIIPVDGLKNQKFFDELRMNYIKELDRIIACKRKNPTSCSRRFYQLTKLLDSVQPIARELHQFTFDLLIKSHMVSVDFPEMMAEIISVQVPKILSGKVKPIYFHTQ

[2] = biological target: Gamma-aminobutyric acid receptor subunit alpha-1/alpha-2/beta-2/gamma-2 (Homo sapiens, UniProt P14867+P18507+P47869+P47870); type: functional, cell-based
[3] = biological target: Beta-2 adrenergic receptor (Homo sapiens, UniProt P07550); type: functional, cell-based
[4] = biological target: T2, Alpha-1A adrenergic receptor (Homo sapiens, UniProt P35348)
T2 sequence (P35348 whole entry): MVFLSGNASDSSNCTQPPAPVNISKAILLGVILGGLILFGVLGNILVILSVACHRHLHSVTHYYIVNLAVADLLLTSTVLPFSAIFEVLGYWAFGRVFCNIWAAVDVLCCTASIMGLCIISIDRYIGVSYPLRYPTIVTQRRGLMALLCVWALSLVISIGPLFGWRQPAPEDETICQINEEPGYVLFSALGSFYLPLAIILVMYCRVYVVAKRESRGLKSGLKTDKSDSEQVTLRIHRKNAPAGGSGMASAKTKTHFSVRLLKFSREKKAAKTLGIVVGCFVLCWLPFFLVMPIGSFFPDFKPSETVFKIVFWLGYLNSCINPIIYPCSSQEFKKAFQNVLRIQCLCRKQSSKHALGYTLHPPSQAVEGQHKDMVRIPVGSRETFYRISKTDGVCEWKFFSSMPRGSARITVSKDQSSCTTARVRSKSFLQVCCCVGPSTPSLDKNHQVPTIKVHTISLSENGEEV

[5] = biological target: T3, Alpha-2A adrenergic receptor (Homo sapiens, UniProt P08913)
T3 sequence (P08913 whole entry): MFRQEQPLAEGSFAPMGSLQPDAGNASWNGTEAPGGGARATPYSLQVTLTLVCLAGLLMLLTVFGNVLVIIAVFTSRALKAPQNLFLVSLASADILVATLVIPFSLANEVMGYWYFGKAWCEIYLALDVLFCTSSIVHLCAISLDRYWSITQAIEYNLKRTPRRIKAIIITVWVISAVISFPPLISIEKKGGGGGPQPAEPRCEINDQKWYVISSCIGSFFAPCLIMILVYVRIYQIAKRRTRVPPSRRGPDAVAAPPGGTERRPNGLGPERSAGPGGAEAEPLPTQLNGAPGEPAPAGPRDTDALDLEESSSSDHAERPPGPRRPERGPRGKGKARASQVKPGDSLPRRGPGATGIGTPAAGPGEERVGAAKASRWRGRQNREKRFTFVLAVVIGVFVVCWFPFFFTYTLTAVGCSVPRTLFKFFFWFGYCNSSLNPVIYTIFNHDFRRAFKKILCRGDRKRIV

[6] = biological target: T4, Peroxisome proliferator-activated receptor gamma (Homo sapiens, UniProt P37231); type: functional
T4 sequence (P37231 whole entry): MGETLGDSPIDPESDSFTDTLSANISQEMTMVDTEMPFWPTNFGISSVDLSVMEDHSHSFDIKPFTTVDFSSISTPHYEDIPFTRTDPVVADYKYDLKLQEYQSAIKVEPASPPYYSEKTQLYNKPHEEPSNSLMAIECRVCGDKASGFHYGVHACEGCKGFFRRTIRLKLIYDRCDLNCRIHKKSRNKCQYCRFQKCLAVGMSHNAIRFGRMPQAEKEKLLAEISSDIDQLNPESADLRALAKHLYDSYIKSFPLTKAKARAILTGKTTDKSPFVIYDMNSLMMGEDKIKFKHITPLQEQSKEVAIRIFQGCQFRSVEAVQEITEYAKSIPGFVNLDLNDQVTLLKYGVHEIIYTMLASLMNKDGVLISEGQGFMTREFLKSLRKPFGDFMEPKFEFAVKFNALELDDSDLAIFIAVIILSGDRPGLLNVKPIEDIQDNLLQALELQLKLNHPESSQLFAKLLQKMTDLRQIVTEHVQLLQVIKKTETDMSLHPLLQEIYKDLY

Histamine H1 receptor = Histamine H1 receptor (Homo sapiens, UniProt P35367); type: functional, cell-based
Also: assay procedure not described here.

5-hydroxytryptamine receptor 2A, sequence (P28223 whole entry): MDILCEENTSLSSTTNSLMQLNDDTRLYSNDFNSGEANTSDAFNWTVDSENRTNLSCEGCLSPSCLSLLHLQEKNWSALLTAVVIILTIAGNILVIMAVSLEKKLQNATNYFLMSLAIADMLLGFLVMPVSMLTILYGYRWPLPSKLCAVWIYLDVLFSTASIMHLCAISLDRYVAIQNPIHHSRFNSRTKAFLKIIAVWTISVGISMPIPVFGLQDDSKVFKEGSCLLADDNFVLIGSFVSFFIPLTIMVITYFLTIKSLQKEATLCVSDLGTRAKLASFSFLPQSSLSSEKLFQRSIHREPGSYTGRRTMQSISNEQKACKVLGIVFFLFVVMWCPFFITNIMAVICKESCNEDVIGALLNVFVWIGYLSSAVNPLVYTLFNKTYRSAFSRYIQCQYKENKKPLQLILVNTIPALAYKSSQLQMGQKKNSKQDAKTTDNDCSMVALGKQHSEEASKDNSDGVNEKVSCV
Histamine H1 receptor, sequence (P35367 whole entry): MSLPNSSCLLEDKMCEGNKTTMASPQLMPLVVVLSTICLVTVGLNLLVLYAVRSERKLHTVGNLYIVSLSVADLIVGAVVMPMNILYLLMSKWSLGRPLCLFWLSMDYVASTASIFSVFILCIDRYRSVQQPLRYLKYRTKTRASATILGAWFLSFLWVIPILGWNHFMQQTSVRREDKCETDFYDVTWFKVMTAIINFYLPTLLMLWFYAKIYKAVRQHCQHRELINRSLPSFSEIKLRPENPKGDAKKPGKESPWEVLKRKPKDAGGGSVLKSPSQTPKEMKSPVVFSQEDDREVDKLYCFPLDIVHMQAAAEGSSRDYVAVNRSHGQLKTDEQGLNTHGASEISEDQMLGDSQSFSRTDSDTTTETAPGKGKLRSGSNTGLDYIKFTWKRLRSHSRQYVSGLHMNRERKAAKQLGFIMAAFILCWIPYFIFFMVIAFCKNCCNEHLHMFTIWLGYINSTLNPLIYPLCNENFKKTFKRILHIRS
Beta-2 adrenergic receptor, sequence (P07550 whole entry): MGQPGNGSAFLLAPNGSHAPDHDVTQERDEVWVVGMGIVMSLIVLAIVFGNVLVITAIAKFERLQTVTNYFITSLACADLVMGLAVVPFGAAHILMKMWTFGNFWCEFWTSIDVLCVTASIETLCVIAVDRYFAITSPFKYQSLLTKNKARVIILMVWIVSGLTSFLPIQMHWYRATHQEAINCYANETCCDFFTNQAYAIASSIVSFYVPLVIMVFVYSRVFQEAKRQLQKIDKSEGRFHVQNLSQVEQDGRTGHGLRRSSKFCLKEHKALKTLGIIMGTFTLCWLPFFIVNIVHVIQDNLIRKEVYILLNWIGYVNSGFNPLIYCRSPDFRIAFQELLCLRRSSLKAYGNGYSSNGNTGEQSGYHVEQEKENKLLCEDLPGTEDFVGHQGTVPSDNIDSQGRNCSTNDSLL
Gamma-aminobutyric acid receptor subunit alpha-1/alpha-2/beta-2/gamma-2, sequence (P14867 whole entry): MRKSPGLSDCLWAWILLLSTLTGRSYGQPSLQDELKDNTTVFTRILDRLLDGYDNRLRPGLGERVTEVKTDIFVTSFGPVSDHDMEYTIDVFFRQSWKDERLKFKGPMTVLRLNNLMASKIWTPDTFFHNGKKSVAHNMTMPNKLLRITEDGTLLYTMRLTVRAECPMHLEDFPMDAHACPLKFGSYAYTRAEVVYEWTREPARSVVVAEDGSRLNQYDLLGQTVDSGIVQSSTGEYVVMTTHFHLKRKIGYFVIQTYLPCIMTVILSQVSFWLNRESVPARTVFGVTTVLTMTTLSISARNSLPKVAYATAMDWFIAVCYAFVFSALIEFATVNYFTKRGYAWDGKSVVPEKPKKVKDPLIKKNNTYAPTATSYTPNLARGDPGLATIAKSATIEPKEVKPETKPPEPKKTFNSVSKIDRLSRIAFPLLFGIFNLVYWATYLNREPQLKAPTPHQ
Gamma-aminobutyric acid receptor subunit alpha-1/alpha-2/beta-2/gamma-2, sequence (P47870 whole entry): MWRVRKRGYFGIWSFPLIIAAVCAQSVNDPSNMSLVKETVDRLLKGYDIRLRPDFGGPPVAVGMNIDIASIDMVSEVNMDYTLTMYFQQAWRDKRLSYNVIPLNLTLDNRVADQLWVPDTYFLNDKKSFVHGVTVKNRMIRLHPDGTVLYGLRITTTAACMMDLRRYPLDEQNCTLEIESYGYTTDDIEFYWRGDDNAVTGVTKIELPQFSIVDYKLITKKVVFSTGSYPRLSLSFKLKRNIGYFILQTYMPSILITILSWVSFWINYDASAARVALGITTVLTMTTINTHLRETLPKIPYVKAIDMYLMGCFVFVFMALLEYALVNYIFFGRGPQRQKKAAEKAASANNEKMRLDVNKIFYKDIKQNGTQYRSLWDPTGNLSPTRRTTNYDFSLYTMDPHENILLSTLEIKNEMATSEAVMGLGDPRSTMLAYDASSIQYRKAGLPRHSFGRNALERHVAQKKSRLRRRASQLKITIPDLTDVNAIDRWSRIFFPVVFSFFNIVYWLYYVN
Gamma-aminobutyric acid receptor subunit alpha-1/alpha-2/beta-2/gamma-2, sequence (P18507 whole entry): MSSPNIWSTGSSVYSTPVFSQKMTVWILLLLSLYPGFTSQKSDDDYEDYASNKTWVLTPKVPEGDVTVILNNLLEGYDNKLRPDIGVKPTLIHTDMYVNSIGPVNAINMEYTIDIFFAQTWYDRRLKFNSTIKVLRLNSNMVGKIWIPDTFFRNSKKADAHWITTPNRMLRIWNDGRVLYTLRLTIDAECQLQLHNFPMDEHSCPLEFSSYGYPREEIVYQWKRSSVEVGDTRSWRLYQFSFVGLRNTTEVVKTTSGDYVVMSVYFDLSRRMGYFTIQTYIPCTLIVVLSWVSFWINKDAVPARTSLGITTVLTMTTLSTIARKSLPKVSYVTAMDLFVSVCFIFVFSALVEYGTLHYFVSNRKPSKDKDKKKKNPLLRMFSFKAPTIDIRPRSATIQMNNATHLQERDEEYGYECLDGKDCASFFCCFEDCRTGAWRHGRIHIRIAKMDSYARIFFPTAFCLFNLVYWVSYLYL
Gamma-aminobutyric acid receptor subunit alpha-1/alpha-2/beta-2/gamma-2, sequence (P47869 whole entry): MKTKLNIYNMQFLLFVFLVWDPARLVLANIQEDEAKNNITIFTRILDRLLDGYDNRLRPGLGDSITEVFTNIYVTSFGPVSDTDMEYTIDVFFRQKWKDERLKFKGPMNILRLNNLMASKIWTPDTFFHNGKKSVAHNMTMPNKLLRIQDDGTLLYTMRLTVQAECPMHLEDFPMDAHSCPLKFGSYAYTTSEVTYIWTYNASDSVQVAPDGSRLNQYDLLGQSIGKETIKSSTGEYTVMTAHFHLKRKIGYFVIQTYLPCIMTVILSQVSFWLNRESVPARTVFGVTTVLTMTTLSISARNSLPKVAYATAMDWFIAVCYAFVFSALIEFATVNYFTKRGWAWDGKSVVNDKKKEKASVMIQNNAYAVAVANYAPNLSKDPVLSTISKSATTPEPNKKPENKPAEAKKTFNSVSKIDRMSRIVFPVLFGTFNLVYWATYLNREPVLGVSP

Compound | AC50 [1] [µM] | AC50 (Androgen receptor) [µM] | AC50 [2] [µM] | AC50 [3] [µM] | AC50 [4] [µM] | AC50 [5] [µM] | AC50 [6] [µM] | AC50 (Histamine H1 receptor) [µM]
O=C(CCCN1CCC(n2c(O)nc3ccccc32)CC1)c1ccc(F)cc1 [BENPERIDOL] | 0.0035 | 7.1 | > 30 | > 30 | – | – | – | –
CCN(CC)C(=O)C1CN2CCc3cc(OC)c(OC)cc3C2CC1OC(C)=O (centres undefined) [BENZQUINAMIDE] | 0.588 | > 30 | > 30 | > 30 | > 10 | 3.03 | > 30 | > 30
CCCCC1(CC)C(=O)NC(=O)NC1=O [BUTETHAL] | – | > 30 | > 30 | > 30 | – | – | > 30 | –
CCCC(C)(COC(N)=O)COC(=O)NC(C)C (centres undefined) [CARISOPRODOL] | > 10 | – | – | > 30 | 13.3 | > 10 | – | > 30
COCCOC(=O)C1=C(C)NC(C)=C(C(=O)OC/C=C/c2ccccc2)C1c1cccc([N+](=O)[O-])c1 (centres undefined) [CILNIDIPINE] | – | – | > 30 | > 30 | – | – | – | > 30
N[C@H](Cc1cc(I)c(Oc2cc(I)c(O)c(I)c2)c(I)c1)C(=O)O [DEXTROTHYROXINE] | > 10 | – | – | > 30 | > 10 | > 10 | – | –
O=C(O)c1ccccc1Nc1cccc(C(F)(F)F)c1 [FLUFENAMIC ACID] | 0.0771 | – | – | > 30 | 1 | – | – | –
CC1(C)C(/C=C/C=C/C=C/C=C2\N(CCCCS(=O)(=O)O)c3ccc4ccccc4c3C2(C)C)=[N+](CCCCS(=O)(=O)[O-])c2ccc3ccccc3c21 [INDOCYANINE GREEN ACID FORM] | – | > 30 | – | > 30 | – | – | – | > 30
CCCC[C@H](C)C[C@H](O)/C=C/[C@H]1[C@H](O)CC(=O)[C@@H]1CCCC/C=C/C(=O)O [LIMAPROST] | – | > 30 | > 30 | > 30 | – | – | > 30 | > 30
CC#CCn1c(N2CCC[C@@H](N)C2)nc2c1c(=O)n(Cc1nc(C)c3ccccc3n1)c(=O)n2C [LINAGLIPTIN] | > 10 | – | – | – | – | > 10 | – | –
Cc1ccc(NC(=O)C2(c3ccc4c(c3)OC(F)(F)O4)CC2)nc1-c1cccc(C(=O)O)c1 [LUMACAFTOR] | – | > 30 | > 30 | > 30 | – | – | > 30 | > 30
CCOC(=O)Nc1ccc2c(c1)N(C(=O)CCN1CCOCC1)c1ccccc1S2 [MORICIZINE] | – | > 30 | > 30 | > 30 | – | – | > 30 | > 30
CC(CCc1ccccc1)NC(C)C(O)c1ccc(O)cc1 (centres undefined) [NYLIDRIN] | 2.5 | – | – | 0.082 | – | 9.39 | – | –
O=C1Nc2ccc(Cl)cc2C(c2ccccc2)=NC1O (centres undefined) [OXAZEPAM] | > 10 | – | – | > 30 | – | > 10 | – | > 30
CC(=O)c1ccc2c(c1)N(CCCN1CCC(CCO)CC1)c1ccccc1S2 [PIPERACETAZINE] | 0.012 | – | – | – | 0.18 | – | – | –
Cc1ccc(=O)n(-c2ccccc2)c1 [PIRFENIDONE] | > 10 | – | > 30 | > 30 | > 10 | – | > 30 | > 30
NC(=O)CCC/N=C(\c1ccc(Cl)cc1)c1cc(F)ccc1O [PROGABIDE] | > 10 | – | – | > 30 | > 10 | – | – | –
Cc1ccc2c(-c3ccccc3)nc(=O)n(C(C)C)c2c1 [PROQUAZONE] | – | 15 | > 30 | > 30 | – | – | – | > 30
CN1CCN(c2c(F)cc3c(=O)c(C(=O)O)cn4c3c2SCC4)CC1 [RUFLOXACIN] | – | – | > 30 | > 30 | – | – | – | > 30
CN1c2ccccc2C(NCCCCCCC(=O)O)c2ccc(Cl)cc2S1(=O)=O (centres undefined) [TIANEPTINE] | – | – | > 30 | > 30 | – | – | – | > 30
COc1cc2c(Nc3ccc(Br)cc3F)ncnc2cc1OCC1CCN(C)CC1 [VANDETANIB] | – | – | > 30 | > 30 | – | – | > 30 | –
N#C[C@@H]1CCCN1C(=O)CNC12CC3CC(CC(O)(C3)C1)C2 [VILDAGLIPTIN] | > 10 | – | – | – | – | > 10 | – | –
